Earlier results on 4 molecules are cited in patent publication US8084444B2, “Treatment of dermatitis with dehydroepiandrosterone-glucocorticoid combinations” (RxDino, LLC, priority 2004, dated 2011).

The conditions of the data set: equivalent in glucocorticoid potency.
As to `C[C@]12CCC(=O)C=C1CC[C@@H]1[C@@H]2C(=O)C[C@@]2(C)[C@H]1CC[C@]2(O)C(=O)CO` [Cortisone], the “Approximate Glucocorticoid Dose Equivalent” value was approximately 25 mg. For `C[C@]12CCC(=O)C=C1CC[C@@H]1[C@@H]2[C@@H](O)C[C@@]2(C)[C@H]1CC[C@]2(O)C(=O)CO` [Hydrocortisone], the “Approximate Glucocorticoid Dose Equivalent” value is reported as approximately 20 mg. Take `C[C@]12C=CC(=O)C=C1CC[C@@H]1[C@@H]2[C@@H](O)C[C@@]2(C)[C@H]1CC[C@]2(O)C(=O)CO` [Prednisolone]: the “Approximate Glucocorticoid Dose Equivalent” value was approximately 5 mg. Take `C[C@]12C=CC(=O)C=C1CC[C@H]1[C@@H]3C[C@@H](O)[C@](O)(C(=O)CO)[C@@]3(C)C[C@H](O)[C@@]12F` [Triamcinolone]: the “Approximate Glucocorticoid Dose Equivalent” value was approximately 0.8 mg.
